Test results from US20050113459A1, “Compositions for diabetes” (priority 2002, published 2005).

Columns and labels:
rats = conditions: daily dose of 1,200 mg/Kg for 52 weeks; cited from earlier work
[1] = tested on: model GK rats having Type II diabetes; assay: Glucose tolerance test in model GK rats having Type II diabetes fed coenzyme Q10 feedstuff; type: in vivo, rat
Excerpt: (§1) The improvement effects of the reduced coenzyme Q10 and the oxidized coenzyme Q10 on the glucose tolerance were examined using model GK rats (5 weeks old, male) having Type II diabetes. The rats were fed ad libitum with a powdered feedstuff containing 0.1 percent by weight of the reduced coenzyme Q10 (containing 2 percent by weight of the oxidized coenzyme Q10) or a feedstuff containing 0.1 percent by weight of the oxidized coenzyme Q10. In order to avoid the reduced coenzyme Q10 in the feedstuff mixture from decreasing due to oxidation, the feedstuff was completely replaced with a new one every two days. The control group was fed with a powdered feedstuff free of coenzyme Q10. The glucose tolerance test was conducted four weeks and six weeks after the feeding of the feedstuff mixture was started (n=4 in each group). In the glucose tolerance test, a 50% glucose solution was orally administered at a dose of 4 ml/kg, and the blood glucose level was measured before the administration and 30 minutes, 60 minutes, 90 minutes, and 120 minutes after the administration. The blood glucose level in blood collected from the tail vein was determined with a simple blood glucose meter.

GK rats = assay: Blood glycosylated hemoglobin (hemoglobin A1c) level of GK rats fed for 12 weeks; type: in vivo, rat; conditions: GK rats fed for 12 weeks with 0.1 wt% in feedstuff
Excerpt: as §1
The blood glycosylated hemoglobin (hemoglobin Alc) level of GK rats fed for 12 weeks was measured as in EXAMPLE 1. […]

[2] = 0.1 wt% in feedstuff, after six weeks of administration
[3] = after four weeks and six weeks of administration

COC1=C(OC)C(=O)C(C/C=C(\C)CC/C=C(\C)CC/C=C(\C)CC/C=C(\C)CC/C=C(\C)CC/C=C(\C)CC/C=C(\C)CC/C=C(\C)CC/C=C(\C)CCC=C(C)C)=C(C)C1=O [coenzyme Q10]
toxic effects in chronic toxicity test (rats): no toxic effects

COC1=C(OC)C(=O)C(C/C=C(\C)CC/C=C(\C)CC/C=C(\C)CC/C=C(\C)CC/C=C(\C)CC/C=C(\C)CC/C=C(\C)CC/C=C(\C)CC/C=C(\C)CCC=C(C)C)=C(C)C1=O [oxidized coenzyme Q10, reference compound]
increase in blood glucose level 30 minutes after the glucose load, in comparison with the control group ([1]; 0.1 wt% in feedstuff, after four weeks of administration, oral glucose load): significantly inhibited
glucose tolerance in comparison with that after four weeks [1, 2]: further improvements
blood glucose level from about an hour after the glucose load, in comparison with the control group [1, 3]: no large difference
Hemoglobin A1c level (GK rats): 4.93 ± 0.42%

COc1c(O)c(C)c(C/C=C(\C)CC/C=C(\C)CC/C=C(\C)CC/C=C(\C)CC/C=C(\C)CC/C=C(\C)CC/C=C(\C)CC/C=C(\C)CC/C=C(\C)CCC=C(C)C)c(O)c1OC [reduced coenzyme Q10]
blood glucose level in comparison with the oxidized coenzyme Q10 group ([1]; 0.1 wt% in feedstuff, after four weeks of administration, all measurement times beginning with 30 minutes after the glucose load): sharply decreased
glucose tolerance in comparison with that after four weeks [1, 2]: improved to a greater extent
blood glucose level ([1]; 0.1 wt% in feedstuff, after six weeks of administration, all measurement points of glucose tolerance test): ≤ 200 mg/dL
increase in blood glucose level after glucose load ([1]; 0.1 wt% in feedstuff, after six weeks of administration, all measurement times): strongly inhibited
blood glucose level 30 minutes after the peak, versus control group [1, 3]: significantly lower
Hemoglobin A1c level (GK rats): 4.17 ± 0.15%
